Assay results from US20040253656A1, “Method for measuring inositol triphosphate” (priority 2003, published 2004).

Tests used:
PLCδ1/PH domain = molecular target: T1, PLCδ1/PH domain (Homo sapiens, UniProt P51178); settings: Lemmon & Ferguson (2001), read-out: affinity for IP3; cited from earlier work
T1 sequence (P51178 21-130 limits assumed): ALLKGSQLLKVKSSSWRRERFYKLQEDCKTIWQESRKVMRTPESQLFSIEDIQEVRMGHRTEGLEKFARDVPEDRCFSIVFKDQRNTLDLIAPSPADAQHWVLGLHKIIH

CHOM1 cells = test: Cellular assay: IP3 levels in CHOM1 cells after carbachol, measured by scintillation proximity assay; assay type: cell-based; settings: 20 mM LiCl, Carbachol 0.01 mM to 100 mM, 1 minute, FIG. 3
Procedure: Standard curves were generated, by displacing labelled IP3, using a range of known concentrations of unlabelled IP3. Reactions were conducted in 96 well Corning NBS microplates in a total volume of […]. The assays were carried out using 10 mMTris/[…] pH 7.0 containing 400 ng of the biotinylated GST-tagged PLC, protein, 10 nCi [^3H] IP3 (spec activity 23.0 Ci/mmol, Amersham), and 1 mg of streptavidin coated PVT beads. Plates were incubated on ice for 2 hours and the plates then read using a Microbeta microplate scintillation counter. Standard curves were also run in the presence of dodecyl trimethyl ammonium bromide (DTAB; lysis reagent 1) and alpha-cyclodextrin (lysis reagent 2) at final concentrations of 0.3% lysis solution 1 and 2% lysis reagent 2 (FIG. 2).
Cells (CHOM1; 2×10^5) were seeded onto a 24 well tissue culture plate and grown overnight at 37° C., 95/5% (air/CO2). Following overnight incubation, media were aspirated and the cells were washed 1× with PBS (phosphate buffered saline). Fresh media were added containing 20 mM LiCl (final concentration of lithium chloride) and the cells were incubated for 30 minutes at 37° C. in a humidified atmosphere (95/5%, air/CO2). […] The plate was incubated on ice for approximately 16 hours and the plate counted using a Microbeta microplate scintillation counter at 1 minute/well.

Structure (SMILES)	Kd (PLCδ1/PH domain)	effect on cellular levels of IP3 (CHOM1 cells)
O=P(O)(O)O[C@@H]1[C@H](O)[C@H](O)[C@@H](OP(=O)(O)O)[C@H](OP(=O)(O)O)[C@H]1O [IP3, Inositol 1,4,5-trisphosphate]	200 nM	
C[N+](C)(C)CCOC(N)=O [carbachol, Carbachol]		stimulatory effect
